Measurements taken from the NIST ThermoML archive (doi:10.1016/j.fluid.2009.12.002).
Numbers after ± are expanded uncertainties.

Key:
[1] = xn = mol fraction of the nth substance listed; details: Liquid, Vibrating tube method
[2] = for mass density: Vibrating tube method; for vapor or sublimation pressure: isothermal bubble-point pressure

SMILES | mass density ([1]; 333.15 K, x1 = 1) | mass density ([1]; 343.15 K, x1 = 1) | mass density ([1]; 353.15 K, x1 = 1) | mass density ([1]; 333.15 K, x2 = 0) | mass density ([1]; 343.15 K, x2 = 0) | mass density ([1]; 353.15 K, x2 = 0) | mass density ([2]; 333.15 K, Gas) | mass density ([2]; 333.15 K, Liquid) | vapor or sublimation pressure ([2]; 333.15 K, Liquid) | mass density ([2]; 343.15 K, Gas) | mass density ([2]; 343.15 K, Liquid) | vapor or sublimation pressure ([2]; 343.15 K, Liquid) | mass density ([2]; 353.15 K, Gas) | mass density ([2]; 353.15 K, Liquid) | vapor or sublimation pressure ([2]; 353.15 K, Liquid)
Cc1ccccc1C [1,2-dimethylbenzene] + CNC=O | 845.839 ± 0.23 kg/m3 | 837.399 ± 0.23 kg/m3 | 828.528 ± 0.24 kg/m3 | – | – | – | – | – | – | – | – | – | – | – | –
CNC=O [N-methylformamide] + Cc1cccc(C)c1 | – | – | – | 967.461 ± 0.23 kg/m3 | 958.765 ± 0.23 kg/m3 | 949.98 ± 0.23 kg/m3 | – | – | – | – | – | – | – | – | –
CNC=O [N-methylformamide] + Cc1ccc(C)cc1 | – | – | – | 967.461 ± 0.23 kg/m3 | 958.765 ± 0.23 kg/m3 | 949.98 ± 0.23 kg/m3 | – | – | – | – | – | – | – | – | –
CNC=O [N-methylformamide] + Cc1ccccc1C | – | – | – | 967.461 ± 0.23 kg/m3 | 958.765 ± 0.23 kg/m3 | 949.98 ± 0.23 kg/m3 | – | – | – | – | – | – | – | – | –
Cc1cccc(C)c1 [1,3-dimethylbenzene] + CNC=O | 829.305 ± 0.24 kg/m3 | 820.443 ± 0.24 kg/m3 | 811.602 ± 0.24 kg/m3 | – | – | – | – | – | – | – | – | – | – | – | –
Cc1cccc(C)c1 [1,3-dimethylbenzene] | – | – | – | – | – | – | 0.2519 ± 0.1 kg/m3 | 829.305 ± 0.24 kg/m3 | 6.58 ± 0.03 kPa | 0.3779 ± 0.1 kg/m3 | 820.443 ± 0.24 kg/m3 | 10.17 ± 0.03 kPa | 0.5457 ± 0.1 kg/m3 | 811.602 ± 0.24 kg/m3 | 15.12 ± 0.04 kPa
Cc1ccc(C)cc1 [1,4-dimethylbenzene] + CNC=O | 825.539 ± 0.24 kg/m3 | 816.664 ± 0.24 kg/m3 | 807.649 ± 0.24 kg/m3 | – | – | – | – | – | – | – | – | – | – | – | –
Cc1ccccc1C [1,2-dimethylbenzene] | – | – | – | – | – | – | 0.2087 ± 0.1 kg/m3 | 845.839 ± 0.23 kg/m3 | 5.45 ± 0.02 kPa | 0.3149 ± 0.1 kg/m3 | 837.399 ± 0.23 kg/m3 | 8.47 ± 0.03 kPa | 0.4587 ± 0.1 kg/m3 | 828.528 ± 0.24 kg/m3 | 12.71 ± 0.03 kPa
Cc1ccc(C)cc1 [1,4-dimethylbenzene] | – | – | – | – | – | – | 0.262 ± 0.1 kg/m3 | 825.539 ± 0.24 kg/m3 | 6.85 ± 0.03 kPa | 0.3903 ± 0.1 kg/m3 | 816.664 ± 0.24 kg/m3 | 10.5 ± 0.03 kPa | 0.5636 ± 0.1 kg/m3 | 807.649 ± 0.24 kg/m3 | 15.61 ± 0.04 kPa
CNC=O [N-methylformamide] | – | – | – | – | – | – | – | 967.461 ± 0.23 kg/m3 | 0.37 ± 0.02 kPa | – | 958.765 ± 0.23 kg/m3 | 0.67 ± 0.02 kPa | – | 949.98 ± 0.23 kg/m3 | 1.15 ± 0.02 kPa
